Assay results published in EP0942911B1, “BENZOPYRANOPYRROLE AND BENZOPYRANOPYRIDINE ALPHA-1 ADRENERGIC COMPOUNDS” (Abbott Laboratories, priority 1996, dated 1998).
Where a name gives a salt, the structure may show the parent alone.

Assays:
Assay in all cases: biochemical
[1] = target: T1, α-1A adrenoreceptor (rat submaxillary gland) (Rattus norvegicus, UniProt P43140); format: binding; conditions: [3H]-prazosin radioligand; rat submaxillary gland membranes; read-out: Radioligand Binding (Ki, nM) 1A (Rat)
T1 sequence (P43140 1-466): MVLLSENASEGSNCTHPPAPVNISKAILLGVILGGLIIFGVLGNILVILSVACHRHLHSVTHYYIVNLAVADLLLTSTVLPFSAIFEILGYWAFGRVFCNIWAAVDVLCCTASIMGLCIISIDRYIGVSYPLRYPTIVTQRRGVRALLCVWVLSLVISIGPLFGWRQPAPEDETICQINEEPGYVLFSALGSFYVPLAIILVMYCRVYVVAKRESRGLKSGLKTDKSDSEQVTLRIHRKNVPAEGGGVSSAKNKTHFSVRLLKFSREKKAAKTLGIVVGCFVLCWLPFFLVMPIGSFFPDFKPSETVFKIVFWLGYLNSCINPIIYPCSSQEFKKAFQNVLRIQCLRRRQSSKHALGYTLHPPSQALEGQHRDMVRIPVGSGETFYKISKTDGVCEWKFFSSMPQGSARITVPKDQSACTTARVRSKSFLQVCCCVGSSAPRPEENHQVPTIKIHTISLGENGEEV
Summary of the method: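 Radioligand binding to α-1A sites in membrane homogenates of rat submaxillary gland, run after Greengrass and Bremner. Bound radioactivity counted by liquid scintillation.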

α-1a adrenoreceptor = target: T2, α-1a adrenoreceptor (Bos taurus, UniProt P18130); format: binding, bovine; conditions: [3H]-prazosin radioligand; cloned receptor in LTK cell membranes; read-out: Radioligand Binding (Ki, nM) 1a (Bovine)
T2 sequence (P18130 1-466): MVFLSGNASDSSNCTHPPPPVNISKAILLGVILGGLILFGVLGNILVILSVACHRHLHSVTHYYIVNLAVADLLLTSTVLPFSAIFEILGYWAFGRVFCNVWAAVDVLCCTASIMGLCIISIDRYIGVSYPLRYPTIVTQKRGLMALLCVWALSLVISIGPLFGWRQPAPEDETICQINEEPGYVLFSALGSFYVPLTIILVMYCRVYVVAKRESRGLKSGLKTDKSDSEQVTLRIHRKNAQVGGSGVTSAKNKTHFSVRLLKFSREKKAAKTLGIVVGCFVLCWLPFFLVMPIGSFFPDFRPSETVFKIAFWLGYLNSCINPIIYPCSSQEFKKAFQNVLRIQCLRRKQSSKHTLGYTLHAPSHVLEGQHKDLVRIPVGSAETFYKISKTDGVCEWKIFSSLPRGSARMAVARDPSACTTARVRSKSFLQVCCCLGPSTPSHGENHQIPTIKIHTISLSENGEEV
Summary of the method: (§1)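 Cloned α-1a (bovine), α-1b (hamster) and α-1d (rat) adrenoreceptors were stably expressed in mouse LTK fibroblasts; membranes from roller-bottle cultures were used. Native α-1A sites came from rat submaxillary gland. Radioligand binding followed Greengrass and Bremner, with liquid scintillation read-out.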

α-1d adrenoreceptor = target: T3, α-1d adrenoreceptor (Rattus norvegicus, UniProt P23944); format: binding; conditions: [3H]-prazosin radioligand; cloned receptor in LTK cell membranes; read-out: Radioligand Binding (Ki, nM) 1d (Rat)
T3 sequence (P23944 1-561): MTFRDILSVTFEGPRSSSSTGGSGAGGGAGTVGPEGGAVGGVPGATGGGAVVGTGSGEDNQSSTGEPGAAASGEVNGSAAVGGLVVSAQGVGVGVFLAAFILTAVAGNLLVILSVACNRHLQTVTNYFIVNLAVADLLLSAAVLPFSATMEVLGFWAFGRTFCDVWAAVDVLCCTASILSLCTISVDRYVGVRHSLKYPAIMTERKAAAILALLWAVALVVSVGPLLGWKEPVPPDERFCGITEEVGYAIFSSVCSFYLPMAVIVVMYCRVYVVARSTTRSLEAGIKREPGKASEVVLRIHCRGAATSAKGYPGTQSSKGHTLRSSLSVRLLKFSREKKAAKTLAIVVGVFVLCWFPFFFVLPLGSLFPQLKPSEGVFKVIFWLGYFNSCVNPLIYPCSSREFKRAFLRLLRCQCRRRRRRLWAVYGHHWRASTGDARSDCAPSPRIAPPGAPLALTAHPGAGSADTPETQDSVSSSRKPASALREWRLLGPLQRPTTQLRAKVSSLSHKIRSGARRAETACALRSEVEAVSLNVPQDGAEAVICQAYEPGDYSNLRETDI
Summary of the method: as §1

Row | SMILES | Ki [1] | Ki (α-1a adrenoreceptor) | Ki (α-1d adrenoreceptor)
1 | COc1cccc2c1[C@@H]1CN(CCCCn3c(=O)[nH]c4c(sc5ncc(Cl)nc54)c3=O)C[C@H]1CO2 [Example 13, 3-[4-((3aS,9bR)-trans-9-Methoxy-1,2,3,3a,4,9b-hexahydro-[1]-benzopyrano[3,4-c]pyrrol-2-yl)butyl]-8-chloro-pyrazino[2',3':4,5]thieno[3,2-d]pyrimidine-2,4(1H,3H)-dione hydrochloride] | 0.1 nM | 0.041 nM | 0.112 nM
2 | COc1cccc2c1[C@@H]1CN(CCCCn3c(=O)[nH]c4c(sc5c(OC)ccnc54)c3=O)C[C@H]1CO2 [Example 17, 3-[4-((3aS,9bR)-trans-9-Methoxy-1,2,3,3a,4,9b-hexahydro-[1]-benzopyrano[3,4-c]pyrrol-2-yl)butyl]-6-methoxy-pyrido[2',3':4,5]thieno[3,2-d]pyrimidine-2,4(1H,3H)-dione dihydrochloride] | 0.175 nM | 0.068 nM | 0.19 nM
3 | COc1cccc2c1[C@@H]1CN(CCCCn3c(=O)[nH]c4c(sc5c(OC)ccnc54)c3=O)C[C@@H]1CO2 [Example 18, 3-[4-((3aR,9bR)-cis-9-Methoxy-1,2,3,3a,4,9b-hexahydro[1]-benzopyrano[3,4-c]pyrrol-2-yl)butyl]-6-methoxy-pyrido[2',3':4,5]thieno[3,2-d]pyrimidine-2,4(1H,3H)-dione dihydrochloride] | 0.284 nM | 0.069 nM | 0.79 nM
4 | COc1cccc2c1[C@@H]1CN(CCCCn3c(=O)[nH]c4c(sc5ccc(Cl)nc54)c3=O)C[C@H]1CO2 [Example 25, 3-[4-((3aS,9bR)-trans-9-Methoxy-1,2,3,3a,4,9b-hexahydro-[1]-benzopyrano[3,4-c]pyrrol-2-yl)butyl]-8-chloro-pyrido[2',3':4,5]thieno[3,2-d]pyrimidine-2,4(1H,3H)-dione dihydrochloride] | 0.061 nM | 0.03 nM | 0.039 nM
5 | COc1ccc2sc3c(=O)n(CCCCN4C[C@H]5COc6cccc(OC)c6[C@@H]5C4)c(=O)[nH]c3c2n1 [Example 26, 3-[4-((3aS,9bR)-trans-9-Methoxy-1,2,3,3a,4,9b-hexahydro-[1]-benzopyrano[3,4-c]pyrrol-2-yl)butyl]-8-methoxy-pyrido[2',3':4,5]thieno[3,2-d]pyrimidine-2,4(1H,3H)-dione hydrochloride] | 0.09 nM | 0.022 nM | 0.017 nM
6 | COc1cccc2c1[C@@H]1CN(CCCCn3c(=O)[nH]c4c(sc5ccncc54)c3=O)C[C@@H]1CO2 [Example 28, 3-[4-((3aR,9bR)-cis-9-Methoxy-1,2,3,3a,4,9b-hexahydro-[1]-benzopyrano[3,4-c]pyrrol-2-yl)butyl]-pyrido[3',4':4,5]thieno[3,2-d]pyrimidine-2,4(1H,3H)-dione dihydrochloride] | 0.273 nM | 0.092 nM | 0.195 nM
7 | COc1cccc2c1[C@@H]1CN(CCCCn3c(=O)[nH]c4c(sc5cnccc54)c3=O)C[C@@H]1CO2 [Example 29, 3-[4-((3aR,9bR)-cis-9-Methoxy-1,2,3,3a,4,9b-hexahydro-[1]-benzopyrano[3,4-c]pyrrol-2-yl)butyl]-pyrido[4',3':4,5]thieno[3,2-d]pyrimidine-2,4(1H,3H)-dione dihydrochloride] | 0.252 nM | 0.095 nM | 0.466 nM
8 | COc1ccc2sc3c(=O)n(CCCCN4C[C@@H]5COc6cccc(OC)c6[C@@H]5C4)c(=O)[nH]c3c2n1 [Example 30, 3-[4-((3aR,9bR)-cis-9-Methoxy-1,2,3,3a,4,9b-hexahydro-[1]-benzopyrano[3,4-c]pyrrol-2-yl)butyl]-8-methoxy-pyrido[2',3':4,5]thieno[3,2-d]pyrimidine-2,4(1H,3H)-dione hydrochloride] | 0.264 nM | 0.066 nM | 0.222 nM
9 | COc1cnc2sc3c(=O)n(CCCCN4C[C@@H]5COc6cccc(OC)c6[C@@H]5C4)c(=O)[nH]c3c2n1 [Example 31, 3-[4-((3aR,9bR)-cis-9-Methoxy-1,2,3,3a,4,9b-hexahydro-[1]-benzopyrano[3,4-c]pyrrol-2-yl)butyl]-8-methoxy-pyrazino[2',3':4,5]thieno[3,2-d]pyrimidine-2,4(1H,3H)-dione hydrochloride] | 0.224 nM | 0.06 nM | 0.344 nM
10 | COc1cccc2c1[C@@H]1CN(CCCCn3c(=O)[nH]c4c(sc5ncccc54)c3=O)C[C@@H]1CO2 [Example 34, 3-[4-((3aR,9bR)-cis-9-Methoxy-1,2,3,3a,4,9b-hexahydro-[1]-benzopyrano[3,4-c]pyrrol-2-yl)butyl]-pyrido[3',2':4,5]thieno[3,2-d]pyrimidine-2,4(1H,3H)-dione hydrochloride] | 0.474 nM | 0.079 nM | 0.339 nM
11 | COc1cccc2c1[C@@H]1CN(CCCCn3c(=O)[nH]c4c(sc5nc(C)ccc54)c3=O)C[C@@H]1CO2 [Example 35, 3-[4-((3aR,9bR)-cis-9-Methoxy-1,2,3,3a,4,9b-hexahydro-[1]-benzopyrano[3,4-c]pyrrol-2-yl)butyl]-7-methyl-pyrido[3',2':4,5]thieno[3,2-d]pyrimidine-2,4(1H,3H)-dione hydrochloride] | 0.312 nM | 0.057 nM | 0.436 nM
12 | COc1cccc2c1[C@@H]1CN(CCCCn3c(=O)[nH]c4c(sc5nccc(OC)c54)c3=O)C[C@@H]1CO2 [Example 36, 3-[4-((3aR,9bR)-cis-9-Methoxy-1,2,3,3a,4,9b-hexahydro-[1]-benzopyrano[3,4-c]pyrrol-2-yl)butyl]-9-methoxy-pyrido[3',2':4,5]thieno[3,2-d]pyrimidine-2,4(1H,3H)-dione hydrochloride] | 0.539 nM | 0.124 nM | 0.36 nM
13 | COc1cccc2c1[C@@H]1CN(CCCCn3c(=O)[nH]c4c(sc5ccc(Cl)nc54)c3=O)C[C@@H]1CO2 [Example 37, 3-[4-((3aR,9bR)-cis-9-Methoxy-1,2,3,3a,4,9b-hexahydro-[1]-benzopyrano[3,4-c]pyrrol-2-yl)butyl]-8-chloro-pyrido[2',3':4,5]thieno[3,2-d]pyrimidine-2,4(1H,3H)-dione hydrochloride] | 0.264 nM | 0.069 nM | 0.195 nM
14 | COc1cccc2c1[C@@H]1CN(CCCCn3c(=O)[nH]c4c(sc5cc(Cl)cnc54)c3=O)C[C@@H]1CO2 [Example 38, 3-[4-((3aR,9bR)-cis-9-Methoxy-1,2,3,3a,4,9b-hexahydro-[1]-benzopyrano[3,4-c]pyrrol-2-yl)butyl]-7-chloro-pyrido[2',3':4,5]thieno[3,2-d]pyrimidine-2,4(1H,3H)-dione hydrochloride] | 0.376 nM | 0.057 nM | 0.897 nM
15 | COc1cccc2c1[C@@H]1CN(CCCCn3c(=O)[nH]c4c(sc5ncc(-c6ccccc6)nc54)c3=O)C[C@@H]1CO2 [Example 39, 3-[4-((3aR,9bR)-cis-9-Methoxy-1,2,3,3a,4,9b-hexahydro-[1]-benzopyrano[3,4-c]pyrrol-2-yl)butyl]-8-phenyl-pyrazino[2',3':4,5]thieno[3,2-d]pyrimidine-2,4(1H,3H)-dione hydrochloride] | 0.343 nM | 0.226 nM | 2.15 nM
